Drawing on patent US10647675B2 (priority 2015, dated 2020), this text covers MIC for 35 compounds.

Assay [1] relates to Trichophyton mentagrophytes SM-110. The assay can be described thus: Antifungal activity evaluation test: minimum inhibitory concentration (MIC), broth dilution by reference to CLSI M38-A2. In kind it is cell-based. The following applies: SM110, read-out: MIC (T. menta.). The method, then:
(§1) The minimum inhibitory concentration (MIC) for Trichophyton mentagrophytes and Trichophyton rubrum was measured by the following procedure by reference to Clinical and Laboratory standards Institute (CLSI) guidelines M38-A2. Reference document for the measurement method: National Committee for a Clinical Laboratory Standards. Reference method for broth dilution antifungal susceptibility testing of filamentous fungi. Approved standard Second edition M38-A2. Wayne, Pa.: National Committee for a Clinical Laboratory Standards, 2008. • Test compound solution: A test compound was dissolved in dimethyl sulfoxide (DMSO) at a concentration of 2.5 mg/mL to give a stock solution. The stock solution was appropriately diluted with DMSO to prepare a 2-fold dilution series. As control compounds, terbinafine and amorolfine were used. • Test strains: Trichophyton mentagrophytes SM-110 and Trichophyton rubrum KD-1130 were used. • Preparation of fungal culture to be inoculated: The above-mentioned test strain was suspended in 0.05% Tween 80-containing saline, and the fungi of the genus Trichophyton were prepared to a fungal concentration of 1×10^6 cells/mL by using a hemocytometer. Then, using MOPS-buffered RPMI 1640 medium (pH 7.0) as a test medium, a fungal culture of the fungi of the genus Trichophyton was diluted 250-fold (4×10^3 cells/mL) to give a fungal culture for inoculation. • MIC measurement of genus Trichophyton fungi: MOPS-buffered RPMI 1640 medium (pH 7.0) was dispensed by 100 μL to given wells of a 96 well U-bottom microplate. Then, the test compound solution (2 μL) was added, the mixture was sufficiently stirred by a plate mixer. The fungal culture (100 μL) was inoculated and the mixture was cultured at 35° C. for 4 days (final fungal concentration: 2×10^3 cells/mL). After the culture, the minimum drug concentration of a well in which a growth inhibitory action of not less than 80% was visually observed as compared to a growth control was taken as a minimum inhibitory concentration (MIC: μg/mL).
(§2) The abbreviations in the Tables mean the following fungi and compounds. • T. menta.: Trichophyton mentagrophytes • T. rubrum: Trichophyton rubrum • TBF: terbinafine • AMF: amorolfine
In general terms: In broth dilution the organism is exposed to a series of concentrations in liquid medium.

Assay [2] deals with Trichophyton rubrum KD-1130. Described as above. In kind it is cell-based. The following applies: KD1130, read-out: MIC (T. rubrum). As to the method:
as §1, §2

Values after ≈ are worked out from the molar mass of the structure shown.

For the compound `COc1ccccc1-c1cccnc1Oc1ccc(C(F)(F)F)nc1` [I-1, 3-(2-methoxyphenyl)-2-{[6-(trifluoromethyl)pyridin-3-yl]oxy}pyridine], the MIC in assay [1] and in assay [2] was at most 0.1 µg/mL in each case.
For `COc1cccc(-c2cccnc2Oc2ccc(C(F)(F)F)nc2)c1` [I-2, 3-(3-methoxyphenyl)-2-{[6-(trifluoromethyl)pyridin-3-yl]oxy}pyridine], the minimal inhibitory concentration (MIC) in assay [1] and in assay [2] was at most 0.1 µg/mL in each case.
Turning to `Fc1ccccc1-c1cccnc1Oc1ccc(C(F)(F)F)nc1` [I-3, 3-(2-fluorophenyl)-2-{[6-(trifluoromethyl)pyridin-3-yl]oxy}pyridine], the minimal inhibitory concentration (MIC) in assay [1] and in assay [2] was at most 0.1 µg/mL in each case.
In the case of `FC(F)(F)c1ccc(Oc2ncccc2-c2ccccc2Cl)cn1` [I-4, 3-(2-chlorophenyl)-2-{[6-(trifluoromethyl)pyridin-3-yl]oxy}pyridine], the MIC in assay [1] and in assay [2] was at most 0.1 µg/mL throughout.
For `FC(F)(F)c1ccc(Oc2ncccc2-c2ccccc2Br)cn1` [I-5, 3-(2-bromophenyl)-2-{[6-(trifluoromethyl)pyridin-3-yl]oxy}pyridine], the results for the MIC in assay [1] and in assay [2] were 0.2 to 0.78 µg/mL (≈ 0.506 to 1.97 µM) and at most 0.1 µg/mL, respectively.
The like results for `Fc1cccc(F)c1-c1cccnc1Oc1ccc(C(F)(F)F)nc1` [I-6, 3-(2,6-difluorophenyl)-2-{[6-(trifluoromethyl)pyridin-3-yl]oxy}pyridine] were, in that order, at most 0.1 µg/mL and at most 0.1 µg/mL.
The like results for `Fc1ccc(F)c(-c2cccnc2Oc2ccc(C(F)(F)F)nc2)c1` [I-7, 3-(2,5-difluorophenyl)-2-{[6-(trifluoromethyl)pyridin-3-yl]oxy}pyridine] were, in that order, at most 0.1 µg/mL and at most 0.1 µg/mL.
The corresponding values for `Fc1ccc(-c2cccnc2Oc2ccc(C(F)(F)F)nc2)c(F)c1` [I-8, 3-(2,4-difluorophenyl)-2-{[6-(trifluoromethyl)pyridin-3-yl]oxy}pyridine] are at most 0.1 µg/mL and at most 0.1 µg/mL.
As to `Fc1cccc(-c2cccnc2Oc2ccc(C(F)(F)F)nc2)c1F` [I-9, 3-(2,3-difluorophenyl)-2-{[6-(trifluoromethyl)pyridin-3-yl]oxy}pyridine], the MIC in assay [1] was 0.2 to 0.78 µg/mL (≈ 0.568 to 2.21 µM); in assay [2], at most 0.1 µg/mL.
The corresponding values for `COc1cccc(F)c1-c1cccnc1Oc1ccc(C(F)(F)F)nc1` [I-10, 3-(2-fluoro-6-methoxyphenyl)-2-{[6-(trifluoromethyl)pyridin-3-yl]oxy}pyridine] are at most 0.1 µg/mL and at most 0.1 µg/mL.
`COc1ccc(F)cc1-c1cccnc1Oc1ccc(C(F)(F)F)nc1` [I-11, 3-(5-fluoro-2-methoxyphenyl)-2-{[6-(trifluoromethyl)pyridin-3-yl]oxy}pyridine]: the MIC in assay [1] and in assay [2] was at most 0.1 µg/mL each time.
Regarding `COc1cc(F)ccc1-c1cccnc1Oc1ccc(C(F)(F)F)nc1` [I-12, 3-(4-fluoro-2-methoxyphenyl)-2-{[6-(trifluoromethyl)pyridin-3-yl]oxy}pyridine], the MIC in assay [1] and in assay [2] was at most 0.1 µg/mL throughout.
`COc1c(F)cccc1-c1cccnc1Oc1ccc(C(F)(F)F)nc1` [I-13, 3-(3-fluoro-2-methoxyphenyl)-2-{[6-(trifluoromethyl)pyridin-3-yl]oxy}pyridine]: the MIC in assay [1] and in assay [2] was at most 0.1 µg/mL throughout.
For `CSc1ccccc1-c1cccnc1Oc1ccc(C(F)(F)F)nc1` [I-14], the MIC in assay [1] and in assay [2] was at most 0.1 µg/mL in each case.
In the case of `O=[N+]([O-])c1ccccc1-c1cccnc1Oc1ccc(C(F)(F)F)nc1` [I-15, 3-(2-nitrophenyl)-2-{[6-(trifluoromethyl)pyridin-3-yl]oxy}pyridine], the MIC in assay [1] and in assay [2] was 0.2 to 0.78 µg/mL (≈ 0.554 to 2.16 µM) each time.
Turning to `CCc1ccccc1-c1cccnc1Oc1ccc(C(F)(F)F)nc1` [I-16, 3-(2-ethylphenyl)-2-{[6-(trifluoromethyl)pyridin-3-yl]oxy}pyridine], the MIC in assay [1] and in assay [2] was at most 0.1 µg/mL each time.
Regarding `CCOc1ccccc1-c1cccnc1Oc1ccc(C(F)(F)F)nc1` [I-17, 3-(2-ethoxyphenyl)-2-{[6-(trifluoromethyl)pyridin-3-yl]oxy}pyridine], the minimum inhibitory concentration (MIC) in assay [1] and in assay [2] was 0.2 to 0.78 µg/mL (≈ 0.555 to 2.16 µM) each time.
As to `CC(=O)c1ccccc1-c1cccnc1Oc1ccc(C(F)(F)F)nc1` [I-19, 1-[2-(2-{[6-(trifluoromethyl)pyridin-3-yl]oxy}pyridin-3-yl)phenyl]ethanone], the minimal inhibitory concentration (MIC) in assay [1] and in assay [2] was 1.56 to 6.25 µg/mL (≈ 4.35 to 17.4 µM) throughout.
Take `COC(=O)c1ccccc1-c1cccnc1Oc1ccc(C(F)(F)F)nc1` [I-20, methyl 2-(2-{[6-(trifluoromethyl)pyridin-3-yl]oxy}pyridin-3-yl)benzoate]: the MIC in assay [1] was in the range of 1.56 to 6.25 µg/mL (≈ 4.17 to 16.7 µM); in assay [2] it was 0.2 to 0.78 µg/mL (≈ 0.534 to 2.08 µM).
Consider `FC(F)(F)Oc1ccccc1-c1cccnc1Oc1ccc(C(F)(F)F)nc1` [I-21, 3-(2-trifluoromethoxyphenyl)-2-{[6-(trifluoromethyl)pyridin-3-yl]oxy}pyridine], for which the MIC in assay [1] and in assay [2] was 0.2 to 0.78 µg/mL (≈ 0.5 to 1.95 µM) in each case.
`COc1ccc(Cl)cc1-c1cccnc1Oc1ccc(C(F)(F)F)nc1` [I-23, 3-(5-chloro-2-methoxyphenyl)-2-{[6-(trifluoromethyl)pyridin-3-yl]oxy}pyridine]: the MIC in assay [1] and in assay [2] was at most 0.1 µg/mL in each case.
For the compound `Cc1ncccc1-c1cccnc1Oc1ccc(C(F)(F)F)nc1` [I-24, 2-methyl-2′-{[6-(trifluoromethyl)pyridin-3-yl]oxy}-3,3′-bipyridine], the minimum inhibitory concentration (MIC) in assay [1] and in assay [2] was 1.56 to 6.25 µg/mL (≈ 4.71 to 18.9 µM) in each case.
As for `Cc1ccncc1-c1cccnc1Oc1ccc(C(F)(F)F)nc1` [I-25], the MIC in assay [1] and in assay [2] was 0.2 to 0.78 µg/mL (≈ 0.604 to 2.35 µM) in each case.
Take `COc1ncccc1-c1cccnc1Oc1ccc(C(F)(F)F)nc1` [I-26, 2-methoxy-2′-{[6-(trifluoromethyl)pyridin-3-yl]oxy}-3,3′-bipyridine]: the MIC in assay [1] and in assay [2] was at most 0.1 µg/mL throughout.
For the compound `COc1ccncc1-c1cccnc1Oc1ccc(C(F)(F)F)nc1` [I-28, 4′-methoxy-2-{[6-(trifluoromethyl)pyridin-3-yl]oxy}-3,3′-bipyridine], the MIC in assay [1] and in assay [2] was 0.2 to 0.78 µg/mL (≈ 0.576 to 2.25 µM) throughout.
For `COc1nc(C)ccc1-c1cccnc1Oc1ccc(C(F)(F)F)nc1` [I-29, 2-methoxy-6-methyl-2′-{[6-(trifluoromethyl)pyridin-3-yl]oxy}-3,3′-bipyridine], the MIC in assay [1] and in assay [2] was at most 0.1 µg/mL throughout.
Consider `COc1ncc(C)cc1-c1cccnc1Oc1ccc(C(F)(F)F)nc1` [I-30, 2-methoxy-5-methyl-2′-{[6-(trifluoromethyl)pyridin-3-yl]oxy}-3,3′-bipyridine], for which the minimal inhibitory concentration (MIC) in assay [1] and in assay [2] was at most 0.1 µg/mL in each case.
Turning to `COc1ncc(Cl)cc1-c1cccnc1Oc1ccc(C(F)(F)F)nc1` [I-31, 5-chloro-2-methoxy-2′-{[6-(trifluoromethyl)pyridin-3-yl]oxy}-3,3′-bipyridine], the MIC in assay [1] and in assay [2] was at most 0.1 µg/mL each time.
As for `COc1ncc(F)cc1-c1cccnc1Oc1ccc(C(F)(F)F)nc1` [I-32, 5-fluoro-2-methoxy-2′-{[6-(trifluoromethyl)pyridin-3-yl]oxy}-3,3′-bipyridine], the MIC in assay [1] was 0.2 to 0.78 µg/mL (≈ 0.548 to 2.14 µM); in assay [2], at most 0.1 µg/mL.
The corresponding values for `FC(F)(F)c1ccc(Oc2ncccc2-c2cccc3cnccc23)cn1` [I-33, 5-(2-{[6-(trifluoromethyl)pyridin-3-yl]oxy}pyridin-3-yl)isoquinoline] are 1.56 to 6.25 µg/mL (≈ 4.25 to 17 µM) and 1.56 to 6.25 µg/mL (≈ 4.25 to 17 µM).
For the compound `FC(F)(F)c1ccc(Oc2ncccc2-c2cccc3cccnc23)cn1` [I-34, 8-(2-{[6-(trifluoromethyl)pyridin-3-yl]oxy}pyridin-3-yl)quinoline], the MIC in assay [1] and in assay [2] was at most 0.1 µg/mL in each case.
On to `FC(F)(F)c1ccc(Oc2ncccc2-c2cccc3c2OCC3)cn1` [I-35, 3-(2,3-dihydrobenzofuran-7-yl)-2-{[6-(trifluoromethyl)pyridin-3-yl]oxy}pyridine], for which the MIC in assay [1] and in assay [2] was at most 0.1 µg/mL in each case.
In the case of `FC(F)(F)c1ccc(Oc2ncccc2-c2cccc3ncccc23)cn1` [I-36, 5-(2-{[6-(trifluoromethyl)pyridin-3-yl]oxy}pyridin-3-yl)quinoline], the figures for the MIC in assay [1] and in assay [2] were at most 0.1 µg/mL and 0.2 to 0.78 µg/mL (≈ 0.544 to 2.12 µM), respectively.
The like results for `FC(F)(F)c1ccc(Oc2ncccc2-c2cccc3nccnc23)cn1` [I-37, 5-(2-{[6-(trifluoromethyl)pyridin-3-yl]oxy}pyridin-3-yl)quinoxaline] were, in that order, 0.2 to 0.78 µg/mL (≈ 0.543 to 2.12 µM) and 0.2 to 0.78 µg/mL (≈ 0.543 to 2.12 µM).
The like results for `FC(F)(F)c1ccc(Oc2ncccc2-c2cccc3c2OCCC3)cn1` [I-38, 3-(chroman-8-yl)-2-{[6-(trifluoromethyl)pyridin-3-yl]oxy}pyridine] were, in that order, at most 0.1 µg/mL and at most 0.1 µg/mL.

As a reminder, the MIC is the smallest concentration in the dilution series that meets the test's criterion for growth inhibition.
